Patent publication US20150313913A1, “POSITIVE ALLOSTERIC MODULATORS OF THE GABA-A RECEPTOR IN THE TREATMENT OF AUTISM” (UNIVERSITY OF WASHINGTON THROUGH ITS CENTER FOR …, priority 2013, published 2015)
Entries after “also recorded” stand apart in the source; their conditions may differ. Read-outs that look alike come from different tables or passages of the source.

Columns and labels:
[1] = cited from earlier work; for Dose in humans for anti-anxiety, anti-convulsive, or sedative effects, per day: Table 1, typical daily dose
[2] = test system: GABA-A receptor; details: cited from earlier work; for Effect at GABA-A receptor: Table 1, exemplary benzodiazepines
[3] = in vivo; cited from earlier work
[4] = test system: C57BL/6J mice; assay: Open field test; format: in vivo; details: 0.2 mg/kg
Procedure: (§1) Open field test was performed as previously described (Han et al., 2012). 50×50 cm square open field arena with non-transparent white Plexiglas was used in this study. During the 10 min of trial, total distance moved, circling behavior (a complete 360-degree turn of nose angle with respect to the body center) and time in center (20×20 cm imaginary square) were measured by the video-tracking software (EthoVision XT 8.5, Noldus Technology).

[5] = test system: C57BL/6J mice; assay: Elevated plus maze test; format: in vivo; details: 0.2 mg/kg
Procedure: The test was performed as previously described (Han et al., 2012). The maze used in this study has two closed arms (5.1×30 cm) surrounded by 20-cm high non-transparent walls and two open arms (5.1×30 cm). During the 10 min of trial, times spent in closed, center, and open arms, and total distance traveled during the trial were measured by the video-tracking software (EthoVision XT 8.5, Noldus Technology).

[6] = test system: C57BL/6J mice; assay: Three-chamber social interaction test; format: in vivo
Text: The mouse was allowed to freely explore each chamber.

[7] = test system: BTBR mice; assay: Open field test; format: in vivo; details: clobazam 0.05 mg/kg
Procedure: as §1

[8] = test system: mouse genetic models of human Dravet syndrome and idiopathic autism; assay: Summary: low-dose treatment of mouse models of autism; format: in vivo, mice; details: low doses that do not induce sedative or anxiolytic effects
Text: The present disclosure describes methods effective in the rescue or amelioration of autism-like behavior, cognitive deficit, and context-dependent spatial memory.
In particular embodiments, these methods comprise the administration of low doses of a benzodiazepine to a human or other mammalian subject in order to rescue autism-like behavior, cognitive deficit, and context-dependent spatial memory. […] At such low doses, the administration of benzodiazepines, such as CLZ, to mammalian subjects will result in improvement of autism-like behavior, cognitive deficit, and context-dependent spatial learning and memory with much lower levels of sedation compared to mammalian subjects who receive typical higher doses of CLZ or other benzodiazepines that are used for treatment of anxiety, insomnia, or seizure.
The present disclosure is also directed to methods of rescuing or ameliorating indicia of Autism Spectrum disorders, autism-like behavior, cognitive deficit, and context-dependent spatial learning and memory in Dravet syndrome or idiopathic autism with α-2,3-specific GABA-A receptor positive allosteric modifiers. Such α-2,3-subunit selective GABA-A receptor positive allosteric modifiers include L838,417.
Therapeutic approaches to treat autistic traits in animal studies or in clinical trials have primarily focused on reducing excitatory neurotransmission in glutamatergic synapses to rebalance E/I ratio in autistic brain (Michalon et al., 2012; Yang et al., 2012). However, autistic-like behaviors in ASD mouse models are only partially reversed by drugs that inhibit excitatory neurotransmission, and these drugs also have unwanted side effects on wild-type mice (Henderson et al., 2012; Michalon et al., 2012; Yang et al., 2012). To overcome these drawbacks, the inventors focused on the opposing side, the GABAergic inhibitory transmission in autistic brain. Their results highlight the potential for therapy of autistic-like behaviors and cognitive deficit in ASD by low-dose treatment with subunit-selective benzodiazepines and other positive allosteric modulators of GABA-A receptors. […] It is possible that the biphasic dose-response relationship of the positive allosteric modulators reflects their actions on receptors containing α2,3 subunits at low doses and on receptors containing α1 subunits at higher doses.

[9] = test system: BTBR mice; assay: Three-chamber social interaction test
Procedure: In the three-chamber test, a test mouse is placed in the center chamber, and the preference of the test mouse for interaction with an inanimate object (a small empty cage) in the left chamber vs. a stranger mouse in an identical cage in the right chamber using a digital camera and quantitative video-tracking analysis.
The test was performed as described previously (Han et al., 2012) with minor modifications. The threechamber apparatus is a non-transparent Plexiglas box (30×60 cm) with two transparent partitions that make left, center, and right chambers (30×20 cm). In the first 10-min session, a test mouse was placed in the center of the empty three-chamber unit to habituate the test mouse. The mouse was allowed to freely explore each chamber. In the second 10-min session, an age- and gender-matched same strain mouse that had never been exposed to the test mouse, was placed in one of the two wire cages. The empty wire cage as an inanimate object cue was placed on the other side. Then, the test mouse was placed again in the center, and allowed to freely explore the chamber for 10 min. Time spent in each chamber, and time spent within a 5 cm radius proximal to each wire cage, as a close interaction were measured by the videotracking software (EthoVision XT 8.5, Noldus Technology). All data shown are means±s.e.m. and analyzed using two-way ANOVA with Bonferroni's post hoc analysis and one-way ANOVA with Tukey's post hoc analysis.
L-838,417, and DMCM (Sigma), dissolved in 100% DMSO (sterile, Sigma) was diluted in PBS (the final concentration of DMSO was ranged from 0.005% to 0.1%). Drugs were administered by an intraperitoneal injection in a volume of […] 30 min before the behavioral tests.

Cc1nnc2n1-c1ccc(Cl)cc1C(c1ccccc1Cl)=NC2 [Triazolam]
Dose in humans for anti-anxiety, anti-convulsive, or sedative effects: equivalent dose to 10 mg diazepam ([1]; Table 1, values marked *): 0.25 mg | Effect at GABA-A receptor [2]: Agonist | half-life [3]: 2 to 3 h

CCc1c(C(=O)OC)ncc2[nH]c3cc(OC)c(OC)cc3c12 [DMCM]
general locomotor behavior (distance moved) [4]: not altered | time spent in center [4]: unaltered | anxiety levels (time in the open arms) [5]: not altered | number of entries in the open arms [5]: unchanged | normal social interaction behavior ([6]; 0.2 mg/kg single injection 30 min prior): impaired; also recorded: substantially reduced

O=C1CN=C(c2ccccc2)c2cc([N+](=O)[O-])ccc2N1 [Nitrazepam]
Dose in humans for anti-anxiety, anti-convulsive, or sedative effects: equivalent dose to 10 mg diazepam ([1]; Table 1, values marked *): 10 mg | Effect at GABA-A receptor [2]: Full agonist Long- acting

CP(C)(=O)CN1C(=O)CN=C(c2ccccc2)c2cc(Cl)ccc21 [Fosazepam]
Dose in humans for anti-anxiety, anti-convulsive, or sedative effects: equivalent dose to 10 mg diazepam ([1]; Table 1, values marked *): 60 mg | Effect at GABA-A receptor [2]: Agonist Low potency

CN(C(=O)CNC(=O)[C@@H](N)CCCCN)c1ccc(Cl)cc1C(=O)c1ccccc1 [Avizafone]
Dose in humans for anti-anxiety, anti-convulsive, or sedative effects ([1]; Table 1): 3.5 mg/kg | Effect at GABA-A receptor [2]: Full agonist

Clc1ccc2c(c1)C(c1ccccc1)=NCc1nncn1-2 [Estazolam]
Dose in humans for anti-anxiety, anti-convulsive, or sedative effects: equivalent dose to 10 mg diazepam ([1]; Table 1, values marked *): 2 mg | Effect at GABA-A receptor [2]: Agonist

CN1C(=O)CN=C(C2=CCCCC2)c2cc(Cl)ccc21 [Tetrazepam]
Dose in humans for anti-anxiety, anti-convulsive, or sedative effects, per day [1]: 50 to 300 mg/day | Dose in humans for anti-anxiety, anti-convulsive, or sedative effects: equivalent dose to 10 mg diazepam ([1]; Table 1, values marked *): 100 mg | Effect at GABA-A receptor [2]: Agonist

O=C1CN=C(c2ccccc2)c2cc(Cl)ccc2N1CC1CC1 [Prazepam]
Dose in humans for anti-anxiety, anti-convulsive, or sedative effects: equivalent dose to 10 mg diazepam ([1]; Table 1, values marked *): 20 mg | Effect at GABA-A receptor [2]: Agonist (Prodrug)

O=C1CN2CCOC2(c2ccccc2Cl)c2cc(Cl)ccc2N1 (centres unmarked) [Cloxazolam]
Dose in humans for anti-anxiety, anti-convulsive, or sedative effects: equivalent dose to 10 mg diazepam ([1]; Table 1, values marked *): 1 mg | Effect at GABA-A receptor [2]: Agonist (Prodrug)

O=C1CN=C(c2ccccn2)c2cc(Br)ccc2N1 [Bromazepam]
Dose in humans for anti-anxiety, anti-convulsive, or sedative effects: equivalent dose to 10 mg diazepam ([1]; Table 1, values marked *): 5 to 6 mg | Effect at GABA-A receptor [2]: Agonist

O=C1CN=C(c2ccccc2)c2cc(Cl)ccc2N1 [Nordazepam]
Dose in humans for anti-anxiety, anti-convulsive, or sedative effects: equivalent dose to 10 mg diazepam ([1]; Table 1, values marked *): 10 mg | Effect at GABA-A receptor [2]: Partial agonist

CN1C(=O)CC(=O)N(c2ccccc2)c2cc(Cl)ccc21 [Clobazam]
anxiolytic effect (time spent in center) [7]: without sedative (FIG. 41C) or anxiolytic effects | sedative effect (total distance moved) [7]: without sedative | autistic-like behaviors and cognitive deficit in BTBR mice (summary) [8]: improved | Dose in humans for anti-anxiety, anti-convulsive, or sedative effects: equivalent dose to 10 mg diazepam ([1]; Table 1, values marked *): 20 mg | Effect at GABA-A receptor [2]: Agonist | social interaction deficit ([9]; 0.05 mg/kg (low dose) 30 min before test): ameliorated social interaction deficits | time in the chamber with the stranger mouse ([9]; FIG. 9): increased | time of interaction with the stranger mouse ([9]; FIG. 9): increased | social interaction (time with stranger mouse, close interaction), dose series ([9]; single i.p. injection 30 min before test, low/increasing doses): increases | social interaction of control mice ([6]; clobazam, FIG. 9): no effect

CN1C(=O)C(O)N=C(c2ccccc2)c2cc(Cl)ccc21 (centres unmarked) [Temazepam]
Dose in humans for anti-anxiety, anti-convulsive, or sedative effects: equivalent dose to 10 mg diazepam ([1]; Table 1, values marked *): 20 mg | Effect at GABA-A receptor [2]: Agonist

N#CCCN1C(=O)C(O)N=C(c2ccccc2F)c2cc(Cl)ccc21 (centres unmarked) [Cinolazepam]
Dose in humans for anti-anxiety, anti-convulsive, or sedative effects: equivalent dose to 10 mg diazepam ([1]; Table 1, values marked *): 40 mg | Effect at GABA-A receptor [2]: Agonist

O=C1Nc2ccc(Cl)cc2C(c2ccccc2Cl)=NC1O (centres unmarked) [Lorazepam]
Dose in humans for anti-anxiety, anti-convulsive, or sedative effects: equivalent dose to 10 mg diazepam ([1]; Table 1, values marked *): 1 mg | Effect at GABA-A receptor [2]: Agonist High- potency

CN1C(=O)CN=C(c2ccccc2)c2cc([N+](=O)[O-])ccc21 [Nimetazepam]
Dose in humans for anti-anxiety, anti-convulsive, or sedative effects: equivalent dose to 10 mg diazepam ([1]; Table 1, values marked *): 5 mg | Effect at GABA-A receptor [2]: Agonist

CN1C(=O)C(O)N=C(c2ccccc2Cl)c2cc(Cl)ccc21 (centres unmarked) [Lormetazepam]
Dose in humans for anti-anxiety, anti-convulsive, or sedative effects: equivalent dose to 10 mg diazepam ([1]; Table 1, values marked *): 1.5 mg | Effect at GABA-A receptor [2]: Agonist Short- acting

CCN(C(C)=O)c1cccc(-c2ccnc3c(C#N)cnn23)c1 [Zaleplon]
Dose in humans for anti-anxiety, anti-convulsive, or sedative effects (marked *) ([1]; Table 2): 20 mg | Effect at GABA receptor ([2]; Table 2, exemplary SS-PAMs): Full agonist α1 selective Acts on α2,3 at higher doses Ultra short- acting

CC1=CC(=O)N2CC(=O)N(C)c3ccc(Cl)cc3C2(c2ccccc2)O1 (centres unmarked) [Ketazolam]
Dose in humans for anti-anxiety, anti-convulsive, or sedative effects: equivalent dose to 10 mg diazepam ([1]; Table 1, values marked *): 15 to 30 mg | Effect at GABA-A receptor [2]: Agonist

O=C(O)C1N=C(c2ccccc2)c2cc(Cl)ccc2NC1=O (centres unmarked) [Clorazepate]
Dose in humans for anti-anxiety, anti-convulsive, or sedative effects, per day [1]: 15 to 60 mg/day | Dose in humans for anti-anxiety, anti-convulsive, or sedative effects: equivalent dose to 10 mg diazepam ([1]; Table 1, values marked *): 15 mg | Effect at GABA-A receptor [2]: Partial Agonist (Prodrug)

CN1CCN(C(=O)OC2c3nccnc3C(=O)N2c2ccc(Cl)cn2)CC1 (centres unmarked) [Zopiclone]
Dose in humans for anti-anxiety, anti-convulsive, or sedative effects: equivalent dose to 10 mg diazepam ([1]; Table 4, values marked *): 15 mg | Effect at GABA receptor ([2]; Table 4, exemplary non-BDZ GABA-A enhancers): Full agonist

O=C1CN=C(c2ccccc2Cl)c2cc(Cl)ccc2N1 [Delorazepam]
Dose in humans for anti-anxiety, anti-convulsive, or sedative effects: equivalent dose to 10 mg diazepam ([1]; Table 1, values marked *): 1 mg | Effect at GABA-A receptor [2]: Agonist

Cc1nnc2n1-c1sc(Br)cc1C(c1ccccc1Cl)=NC2 [Brotizolam]
Dose in humans, sedative ([1]; Table 1, Sedative): 0.125 to 25 mg | Dose in humans, anti-anxiety ([1]; Table 1, anti-anxiety): 80 to 100 mg | Dose in humans for anti-anxiety, anti-convulsive, or sedative effects: equivalent dose to 10 mg diazepam ([1]; Table 1, values marked *): 0.25 mg | Effect at GABA-A receptor [2]: Agonist

Cc1c2c(cn1C)NC(=O)CN=C2c1ccccc1 [Premazepam]
Dose in humans for anti-anxiety, anti-convulsive, or sedative effects: equivalent dose to 10 mg diazepam ([1]; Table 1, values marked *): 15 mg | Effect at GABA-A receptor [2]: Partial agonist

CN1CCN=C(c2ccccc2)c2cc(Cl)ccc21 [Medazepam]
Dose in humans for anti-anxiety, anti-convulsive, or sedative effects: equivalent dose to 10 mg diazepam ([1]; Table 1, values marked *): 10 mg | Effect at GABA-A receptor [2]: Agonist Long- acting

O=C1Nc2ccc(Cl)cc2C(c2ccccc2)=NC1O (centres unmarked) [Oxazepam]
Dose in humans, mild/moderate anxiety ([1]; Table 1, 1 to 2 times daily): 10 to 15 mg | Dose in humans, severe anxiety ([1]; Table 1, 3 to 4 times daily): 15 to 30 mg | Dose in humans, symptoms related to alcohol withdrawal ([1]; Table 1, 3 to 4 times daily): 15 to 30 mg | Dose in humans for anti-anxiety, anti-convulsive, or sedative effects: equivalent dose to 10 mg diazepam ([1]; Table 1, values marked *): 20 mg | Effect at GABA-A receptor [2]: Agonist Short- acting
